Some results are limits rather than exact numbers.

A word on the melting point: it is the temperature of the solid-liquid transition. `Cc1ccc(-n2c(-c3ccc(Br)cc3)nc3c4ccccc4c4ccccc4c32)cc1`: the melting point was found to be 236 °C. Then `C1=Cc2cccnc2N(C2CC2)c2ncccc21`, with 184 to 185 °C; and `Nc1nc(=O)n(C2CC(O)C(CNC(=O)Cc3ccccc3Br)O2)cc1Br` (centres undefined), with 164 to 167 °C.

`CC1(C)NC(=O)CN1C(=O)CNC(=O)OCc1ccccc1` yielded a melting point of 135 to 136 °C. The compound `COc1cc(Nc2c(C#N)cnc3cc(I)sc23)c(Cl)cc1Cl` returned a melting point of 233 to 234 °C.

As to `CN(C)CCNC(=O)c1ccc(C(Cc2ccc(F)cc2)C(=O)Nc2nc3ccccc3o2)cc1` (centres undefined), the melting point was in the range of 149 to 151 °C.

In turn, `O=C(NCCOc1ccc(CC(Oc2ccc(F)cc2)C(=O)O)cc1)c1ccc(-c2ccccn2)cc1` (centres undefined) came in with a melting point of 139 to 140 °C.

`CCCc1c(SCCCOc2ccc3c(=O)cc(CCC(=O)O)oc3c2CCC)ccc(C(C)=O)c1N` displayed a melting point of 153 to 155 °C.

`OC1C(COC2CC2)OC(n2cnc3c(NCc4cccc(I)c4)ncnc32)C1O` (centres undefined) yielded a melting point of 110 to 112 °C.

Consider `O=[N+]([O-])c1cccnc1Oc1ccc2c(c1)OCC(c1ccccc1)O2` (centres undefined), for which the melting point was less than 60 °C. `CCCCc1nn(-c2ccccc2C(F)(F)F)c(=O)n1Cc1ccc(-c2ccccc2S(N)(=O)=O)cc1` had a melting point of 74 to 76 °C. Then `COCCOc1c(S(C)(=O)=O)ccc(Cl)c1C`, with 83 to 85 °C; and `CC(C)(C)OC(=O)N[C@@H]1C(=O)N(CCOCc2ccccc2)c2ccccc2-c2ccccc21`, with 132 to 134 °C. Then `O=[N+]([O-])c1c(Br)nn(Cc2ccccc2)c1NCc1ccccc1`, with 103 °C; and `Cc1ccc2c(=O)[nH]c(N3CCN(C)CC3)cc2c1`, with 242 to 243 °C. With `COC12CC(COS(=O)(=O)c3ccc(C)cc3)CN(C)C1Cc1cn(C(C)(C)C)c3cccc2c13` (centres undefined), the melting point lay in the range of 150 to 152 °C. Compound `COc1ccccc1C(=O)c1ncccc1C` yielded a melting point of 98 to 100 °C. Then `NS(=O)(=O)c1ccc(C=Nc2ccc(SSc3ccc(N=Cc4ccc(S(N)(=O)=O)cc4)cc3)cc2)cc1`, with 200 to 230 °C; and `Cc1nnc(-c2ccc3occ(-c4cnn(Cc5ccccn5)c4)c3c2)o1`, with 134 to 135 °C; and `COCCNc1cc(Sc2ccc(Cl)cc2)nc(-c2ccc(OC)cc2)n1`, with 117 to 118 °C. Then `CC(C)OC(=O)C(C(=O)Nc1ccc(C(F)(F)F)cc1)=C1SCS1`, with 151 to 152 °C; and `CCCCC(Cn1cncn1)(C(N)=O)c1ccc(Cl)cc1` (centres undefined), with 197 to 199 °C. As for `CCCCCCCCCCCCc1cc(C)on1`, the melting point was in the range of 35 to 38 °C. Then `C=C(C)Sc1oc2cc(OCc3ccccc3)ccc2c(=O)c1-c1ccc(OC)cc1`, with 101 to 102 °C; and `CC1(C)C(c2ccc(S(C)(=O)=O)cc2)=C(c2ccccc2)C1(C)O` (centres undefined), with 114 to 115 °C; and `Cc1c(O[Si](C)(C)C(C)(C)C)cc(O[Si](C)(C)C(C)(C)C)c(C)c1C(=O)OCC(Cl)(Cl)Cl`, with 90 to 92 °C.

The compound `CCCc1nn(CC)c2c(=O)n(CCOc3cccc(OC(C)(C)C(=O)O)c3)c(C)nc12` gave a melting point of 147 to 149 °C. On to `CCOC(=O)c1ccc2c(c1)C(=C1CCN(C)CC1)c1ccccc1C=C2`, for which the melting point fell in the range of 94 to 96 °C. Then `COc1ccc([C@H]2O[C@](O[Si](C)(C)C)(C(F)(F)F)C(C)(C)N2C(=O)c2ccccc2)cc1` (racemic), with 120 to 123 °C; and `Cc1cc(NC(=O)c2ccccc2C)ccc1Br`, with 144 to 146 °C; and `O=C(C(=C1SCS1)c1ccncc1)c1ccc(Cl)cc1`, with 149 to 151 °C. Then `CCOC(=O)COC1CCN(C(=O)[C@H](C)OCc2ccc(C(N)=NO)cc2)CC1`, with 137 to 138 °C. Then `COc1ccc(-c2c(NC(C)C(C)(C)C)c(=O)c2=O)cc1` (centres undefined), with 179 to 181 °C. `Cc1ccc(CN(c2ccccc2CC(=O)O)c2c(Cl)cccc2Cl)cc1` returned a melting point of 154 to 158 °C.

Regarding `Cc1nc(-c2cccnc2)sc1-c1ccnc(Nc2ccc(N3CCCC3)cc2)n1`, the melting point fell in the range of 212 to 214 °C. Then `CCC(C)Oc1ccccc1-c1ncc(C(N)=O)c(=O)[nH]1` (centres undefined), with 183 to 185 °C. Then `Cc1oc(-c2ccccc2)nc1COc1ccc(C(=O)c2ccccc2OCC(=O)O)cc1`, with 174 to 175 °C. On to `CC(C)(C)c1ccc2c(c1)C=C(C(=O)O)C(C(F)(F)F)S2` (centres undefined), for which the melting point was in the range of 184 to 185 °C. Then `CCN(CC)C(=O)Cc1ccc(C(=O)c2ccc(Cl)cc2)n1C`, with 82 to 85 °C; and `CC1CCCN1c1ccccc1NC(N)=S` (centres undefined), with 145 to 148 °C; and `CC(=O)CN1C(=O)C(NC(=O)Nc2cccc(-c3nnn[nH]3)c2)N=C(c2ccccc2F)c2cccc(C)c21` (centres undefined), with 174 to 190 °C. Then `N#Cc1cc([N+](=O)[O-])ccc1N1CCOCC1`, with 138 to 140 °C; and `CCCc1oc2ccc([N+](=O)[O-])cc2c1C(=O)c1ccc(O)cc1`, with 119 °C; and `O=c1ccn(-c2cccc(C(F)(F)F)c2)nc1-c1nncn1-c1ccccc1`, with 103 to 104 °C. Then `COC(=O)NC(C)(C)c1ccc(CS(=O)(=O)c2ccc(C)c(C)c2)cc1`, with 146 to 149 °C; and `COC(=O)c1ccc(CNC(=O)c2[nH]c(-c3cccs3)cc2-c2ccc(F)cc2)nc1`, with 174 to 176 °C; and `CS(=O)(=O)OCc1ccc(-c2nnc3n2-c2cccnc2Nc2ccccc2-3)cc1`, with 252 to 253 °C. With `Cc1nc2ccccn2c(=O)c1CC1CCCCC1`, the melting point was in the range of 112 to 114 °C. Then `COc1cc(C=O)c2oc(-c3ccc(OC)c(F)c3)cc2c1`, with 161 to 163 °C; and `COc1cccc([C@H]2O[C@H](CC(=O)NS(C)(=O)=O)C(=O)N(CC(C)(C)CO)c3ccc(Cl)cc32)c1OC`, with 221 to 223 °C.

With `NC(=O)N(O)CC1CCCCCC1`, the melting point lay within 110 to 112 °C. As for `Brc1cc(-c2c3ccccc3c(Br)c3sc4ccccc4c23)cc(Br)c1OCc1nnn[nH]1`, the melting point fell in the range of 243 to 245 °C. Then `Cc1ccc(CSc2ccc(Cl)cc2)cc1`, with 72 to 73 °C; and `c1ccc(COc2cccc3nc[nH]c23)cc1`, with 165 to 167 °C. Then `O=Cc1cc2c3ccccc3ccc2c2occc12`, with 145 to 150 °C.

On to `O=C(O)Cc1ccc2c(c1)C(=O)Cc1ccccc1S2`, for which the melting point was in the range of 166 to 167 °C.

Compound `CCCCCCCc1c(C(=O)OCC)[nH]c(C)c1C` showed a melting point of 68 to 69 °C. Then `CNC(=O)c1cccc(NC(=O)Cc2csc3ccccc23)c1`, with 194 °C. Then `COCCOCc1c(CN(C)CC(O)c2ccc(C#N)s2)sc2c(=O)c(C(=O)NCc3ccc(Cl)cc3)cn(C)c12` (centres undefined), with 163 to 164 °C; and `COc1ccc(COc2cccnc2NC(=N)Nc2ccc(Cl)cc2)cc1`, with 165 to 166 °C; and `CC(C)C[C@@H](C=O)NC(=O)[C@H](Cc1c[nH]cn1)NC(=O)[C@H](Cc1ccccc1)NC(=O)CCCc1ccccc1`, with 98 to 103 °C. `C#Cc1cccc(Nc2ncnc3ccc(S(=O)(=O)n4ccc(C=CC(=O)Nc5ccccc5N)c4)cc23)c1` showed a melting point of 150 to 153 °C. Then `OCc1cc(CCCCCCCOc2ccc(C3=NCCO3)cc2)on1`, with 122 to 124 °C; and `O=C(O)c1ccc(OCCn2ncc3nc(C(=O)NCc4cccc(OCCOc5nc[nH]n5)c4)[nH]c(=O)c32)cc1`, with 176 to 178 °C. Then `CCOC(=O)N1C(=O)N(C(=O)OCc2ccccc2)C2(C1=O)C(=O)N(Cc1ccc(Cl)c(Cl)c1)c1ccccc12` (centres undefined), with 128 to 131 °C; and `O=C(c1ccccc1)N1CCc2cc(S(=O)(=O)N3CC(c4ccccc4)NC3=O)ccc21` (centres undefined), with 127 °C; and `Cc1nnc(-c2ccc(F)cc2F)n2nc(OCc3ncnn3C)c(-c3ccsc3)c12`, with 144 to 146 °C.

`Cc1nc2cccc(S(=O)(=O)n3c(CCC(=O)O)cc4cc(Cl)ccc43)c2s1` yielded a melting point of 188 to 189 °C. With `COc1cc(N)c(Cl)cc1C(=O)NC1CCN(CCCC2(C)NC(=O)NC2=O)CC1OC` (centres undefined), the melting point was found to be 236 °C. With `CC(Sc1nc(SCc2ccccc2)n[nH]1)C(=O)O` (centres undefined), the melting point was in the range of 123 to 124 °C. In turn, `Cc1ccnc(C2C(=O)CC(C(C)C)CC2=O)c1` (centres undefined) returned a melting point of 104 to 106 °C. On to `CCc1nc2c(C)cc(C)cc2n1-c1ccc(CCNC(=O)NS(=O)(=O)c2ccc(C)cc2)cc1`, for which the melting point lay within 108 to 112 °C. Then `CC[C@H](c1ccc(C(F)(F)F)cc1)N(Cc1ccc(C(=O)O)cc1)S(=O)(=O)c1ccc(Cl)cc1`, with 105 to 107 °C.

In the case of `COc1cc(C(=O)N2Cc3ccc(C(=O)NCc4ccccc4)n3Cc3ccccc32)ccc1-c1ccccc1C`, the melting point fell in the range of 170 to 174 °C. `C#CCOc1cc(C)nc(-c2cccc(CCC)n2)n1` registered a melting point of 92.5 °C. Regarding `Cc1cc(OCc2sc(-c3ccc(C(F)(F)F)cc3)nc2C)ccc1/C=C/C(=O)O`, the melting point fell in the range of 200 to 203 °C. As for `COc1ccc(NC(=O)/C=C/c2c(OC)cc(OC)cc2OC)cc1`, the melting point was in the range of 198 to 200 °C.

`Cc1ccc(S(=O)(=O)N2CCNCCOCCOCCNCCN(S(=O)(=O)c3ccc(C)cc3)CC2)cc1` registered a melting point of 121 °C.

In turn, `COC(=O)C(=O)c1ccc(OCCOc2ccc3cc4ccccc4cc3c2)cc1` had a melting point of 188 to 189 °C. The compound `CCc1ccc(CCc2ccc(-c3ccc(OC(F)F)cc3)cc2)cc1` gave a melting point of 131 °C. Then `CCOC(=O)c1cn(CC)c2cc(Cl)c(Br)cc2c1=O`, with 166 °C; and `Cc1ccc(N(C)N=C(N)C(N)=O)cc1OCC(F)(F)C(F)(F)F`, with 129 to 130 °C. `Cc1cc(NCCO)n2ncc([N+](=O)[O-])c2n1` returned a melting point of 231 °C. Then `Nc1nnc(-c2ccc(Cl)cc2)s1`, with 221 °C.

The values are drawn from a melting point compilation (Tetko et al.; mined from patent text by program, amines drawn as free bases though some values may be those of a salt).
